The values that follow come from ChEMBL document CHEMBL1137315, “7-Aroyl-aminoindoline-1-sulfonamides as a novel class of potent antitubulin agents” (J Med Chem, 2006).

The structures appear in SMILES notation.

Assay [1] concerns KB. In words: Cytotoxicity against human KB cell line by methylene blue dye assay. The class given is functional, cell-based.
A further assay has as its system MKN-45. In words: Cytotoxicity against human MKN45 cell line by methylene blue dye assay. The class given is functional, cell-based.
For assay [2], the system named is KB. In words: Cytotoxicity against KB-VIN 10 cell line by methylene blue dye assay. It is filed as functional, cell-based. As to conditions: Homo sapiens.
Another assay relates to TSGH 9201. Nature of the assay: Cytotoxicity against human TSGH cell line by methylene blue dye assay. The class given is functional, cell-based.
Another assay concerns HT-29. In words: Cytotoxicity against human HT29 cell line by methylene blue dye assay. It is filed as functional, cell-based.
A further assay concerns the target Tubulin. Nature of the assay: Inhibition of tubulin polymerization. It is filed as functional, Homo sapiens.
The next assay concerns NCI-H460. In words: Cytotoxicity against human H460 cell line by methylene blue dye assay. The class given is functional, cell-based.
The target of assay [3] is T1, Tubulin (Homo sapiens) (UniProt P68371+Q9H4B7+P0DPH7+P68366+Q13509+Q71U36+P04350+Q3ZCM7+P07437+P68363+Q9BQE3+Q6PEY2+Q13885+Q9BVA1+Q9BUF5). Nature of the assay: Inhibition of [3H]colchicine binding to tubulin at 1 uM. It is filed as protein-complex assay.
Assay [4] has as its target T1, Tubulin (Homo sapiens). In words: Inhibition of [3H]colchicine binding to tubulin at 5 uM. The class given is protein-complex assay.

Turning to `COc1cc2c(c(OC)c1OC)-c1ccc(OC)c(=O)cc1[C@@H](NC(C)=O)CC2` [COLCHICINE], the values for the IC50 with KB [1], in the assay on MKN-45 and in the assay on KB [2] were 13.3 nM, 15 nM and 117 nM, respectively.

As for `COc1ccc(C(=O)Nc2cccc3c2N(S(=O)(=O)c2ccc(OC)cc2)CC3)cc1`, the IC50 (in general, the concentration that gives 50% inhibition) turned out to be 2600 nM in the assay with KB [1] and 1600 nM in the assay on MKN-45.

For `COc1ccc(S(=O)(=O)N2CCc3cccc(NS(=O)(=O)c4ccc([N+](=O)[O-])cc4)c32)cc1`, the IC50 in the assay on KB [1] turned out to be 1100 nM; in the assay with MKN-45 it was 933 nM.

Take `COc1ccc(S(=O)(=O)N2CCc3cccc(NC(=O)Oc4ccccc4)c32)cc1`: the IC50 in the assay on KB [1] and with MKN-45 was more than 10000 nM in each case.

Regarding `COc1ccc(S(=O)(=O)N2CCc3cccc(NCc4ccccc4)c32)cc1`, the IC50 was more than 10000 nM in the assay with TSGH 9201; more than 10000 nM with HT-29; more than 5000 nM at Tubulin; more than 10000 nM in the assay with KB [1]; more than 10000 nM in the assay with MKN-45; more than 10000 nM in the assay with KB [2]. The IC50 with NCI-H460 is more than 10000 nM.

Take `COc1ccc(S(=O)(=O)N2CCc3cccc(NC(=O)C(C)(C)C)c32)cc1`: the results for the IC50 in the assay on KB [1] and with MKN-45 were 359 nM and 289 nM, respectively.

Turning to `COc1ccc(S(=O)(=O)N2CCc3cccc(NC(=O)N(C)c4ccccc4)c32)cc1`, the IC50 in the assay on KB [1] and in the assay with MKN-45 was more than 10000 nM each time.

As to `COc1ccc(S(=O)(=O)N2CCc3cccc(NS(=O)(=O)c4ccc(F)cc4)c32)cc1`, the concentration for half-maximal inhibition (IC50) with KB [1] is 1200 nM; with MKN-45 it was 890 nM.

On to `COc1ccc(S(=O)(=O)N2CCc3cccc(NC(=O)c4ccncc4)c32)cc1`, for which the IC50 in the assay with TSGH 9201 stood at 10.8 nM; with HT-29, 8.6 nM; at Tubulin it was 1100 nM; with KB [1], 9.6 nM; in the assay on MKN-45 it was 8.8 nM; in the assay with KB [2] it was 8.9 nM. For the same compound, in the assay on NCI-H460, the IC50 stood at 9.4 nM. Besides, the inhibition (as a rule, how much of the control response was suppressed) on Tubulin (Homo sapiens) [3] was determined as 78%; on Tubulin (Homo sapiens) [4] it was 96%.

As for `COc1ccc(S(=O)(=O)N2CCc3cccc(NC(=O)c4ccc([N+](=O)[O-])cc4)c32)cc1`, the IC50 in the assay on TSGH 9201 came out at 116 nM; with HT-29 it was 65 nM; on Tubulin, 1900 nM; in the assay on KB [1] it was 102 nM; with MKN-45 it was 95 nM; in the assay with KB [2] it was 95 nM. The compound also gave an IC50 with NCI-H460 of 122 nM. The inhibition at Tubulin (Homo sapiens) [3] was 62%; on Tubulin (Homo sapiens) [4], 91%.

For the compound `COc1ccc(S(=O)(=O)N2CCc3cccc(NC(=O)c4ccco4)c32)cc1`, the IC50 with TSGH 9201 came out at 11.1 nM; in the assay with HT-29, 9.5 nM; against Tubulin, 1200 nM; with KB [1], 9.6 nM; with MKN-45, 10.7 nM; with KB [2], 9.2 nM. This compound showed an IC50 in the assay on NCI-H460 of 9.8 nM. The inhibition at Tubulin (Homo sapiens) [3] came out at 74%; on Tubulin (Homo sapiens) [4] it was 95%.

Regarding `COc1ccc(S(=O)(=O)N2CCc3cc(Br)cc(NC(=O)c4ccco4)c32)cc1`, the results for the IC50 in the assay with KB [1] and in the assay on MKN-45 were 89 nM and 78 nM, respectively.

Turning to `COc1ccc(S(=O)(=O)N2CCc3cccc(NC(=O)c4cccs4)c32)cc1`, the IC50 in the assay on TSGH 9201 is 54 nM; with HT-29, 37 nM; against Tubulin, 1700 nM; in the assay on KB [1] it was 47 nM; in the assay with MKN-45, 31 nM; in the assay with KB [2], 43 nM. In the assay on NCI-H460, this compound had an IC50 of 49 nM. Further, the values for the inhibition at Tubulin (Homo sapiens) [3] and on Tubulin (Homo sapiens) [4] were 75% and 94%, respectively.

As for `COc1ccc(S(=O)(=O)N2CCc3cccc(NC(=O)c4ccc(C#N)cc4)c32)cc1`, the IC50 was 105 nM in the assay with KB [1] and 89 nM in the assay with MKN-45.

On to `COc1ccc(S(=O)(=O)N2CCc3cccc(NC(=O)c4ccc(F)cc4)c32)cc1`, for which the IC50 in the assay on TSGH 9201 amounted to 100 nM; in the assay with HT-29 it was 55 nM; at Tubulin, 1500 nM; in the assay with KB [1], 93 nM; in the assay on MKN-45 it was 45 nM; with KB [2], 85 nM. The IC50 in the assay with NCI-H460 was determined as 95 nM. In addition, the inhibition on Tubulin (Homo sapiens) [3] is 65%; at Tubulin (Homo sapiens) [4], 93%.

With `COc1ccc(S(=O)(=O)N2CCc3cccc(NC(=O)c4ccccc4)c32)cc1`, the IC50 in the assay with TSGH 9201 worked out at 201 nM; with HT-29 it was 192 nM; with KB [1], 297 nM; in the assay with MKN-45, 250 nM; with KB [2], 180 nM; in the assay with NCI-H460 it was 257 nM.

As to `COc1ccc(S(=O)(=O)N2CCc3cccc(NS(=O)(=O)c4ccccc4)c32)cc1`, the values for the IC50 with KB [1] and in the assay on MKN-45 were 650 nM and 562 nM, respectively.

As to `COc1ccc(S(=O)(=O)N2CCc3cccc(NC(C)=O)c32)cc1`, the half-maximal inhibitory concentration (IC50) was found to be 103 nM in the assay on TSGH 9201; 51 nM in the assay on HT-29; 1900 nM at Tubulin; 89 nM in the assay on KB [1]; 61 nM in the assay with MKN-45; 90 nM with KB [2]. Also, the IC50 with NCI-H460 came out at 75 nM. Also, the inhibition on Tubulin (Homo sapiens) [3] stood at 57%; at Tubulin (Homo sapiens) [4], 86%.

As to `COc1ccc(S(=O)(=O)N2CCc3cc(Br)cc(NC(=O)c4ccncc4)c32)cc1`, the IC50 was 91 nM in the assay on KB [1] and 86 nM in the assay with MKN-45.

In the case of `COC(=O)c1ccc(C(=O)Nc2cccc3c2N(S(=O)(=O)c2ccc(OC)cc2)CC3)cc1`, the IC50 in the assay on KB [1] was found to be 376 nM; with MKN-45, 312 nM.

Turning to `COc1ccc(S(=O)(=O)N2CCc3cccc(N)c32)cc1`, the IC50 in the assay on KB [1] amounted to 2800 nM; in the assay on MKN-45, 1200 nM.
